Data taken from BindingDB's records for doi:10.1016/0960-894X(95)00556-9 (1996).

Experiments:
[1] = Compound was evaluated for its ability to displace [3H]L-364718 from Cholecystokinin type A receptor from rat pancreas at dose of 0.03 umol/kg
[2] = Compound was evaluated for its ability to displace [3H]-L-364,718 from Cholecystokinin type A receptor from rat pancreas

SMILES	IC50 [1]	IC50 [2]
Cc1cccc(NC(=O)N[C@@H]2N=C(c3ccccc3)c3ccccc3N(CC(=O)C(C)(C)C)C2=O)c1 [1-[(R)-1-(3,3-Dimethyl-2-oxo-butyl)-2-oxo-5-phenyl-2,3-dihydro-1H-benzo[e][1,4]diazepin-3-yl]-3-m-tolyl-urea]	111 nM	–
Cc1cccc(NC(=O)NC2N=C(c3ccccc3)c3ccccc3N(CC(=O)C3(C)CCCCC3)C2=O)c1 (stereo not drawn) [1-{1-[2-(1-Methyl-cyclohexyl)-2-oxo-ethyl]-2-oxo-5-phenyl-2,3-dihydro-1H-benzo[e][1,4]diazepin-3-yl}-3-m-tolyl-urea]	–	> 10000 nM
Cc1cccc(NC(=O)N[C@H]2N=C(c3ccccc3)c3ccccc3N(CC(=O)C3CCCC3)C2=O)c1 [1-[(S)-1-(2-Cyclopentyl-2-oxo-ethyl)-2-oxo-5-phenyl-2,3-dihydro-1H-benzo[e][1,4]diazepin-3-yl]-3-m-tolyl-urea]	–	2500 nM
Cc1cccc(NC(=O)NC2N=C(c3ccccc3)c3ccccc3N(CC(=O)C3(C)CCCC3)C2=O)c1 (stereo not drawn) [1-{1-[2-(1-Methyl-cyclopentyl)-2-oxo-ethyl]-2-oxo-5-phenyl-2,3-dihydro-1H-benzo[e][1,4]diazepin-3-yl}-3-m-tolyl-urea]	–	293 nM
CCC(C)(C)C(=O)CN1C(=O)C(NC(=O)Nc2cccc(C)c2)N=C(c2ccccc2)c2ccccc21 (stereo not drawn) [1-[1-(3,3-Dimethyl-2-oxo-pentyl)-2-oxo-5-phenyl-2,3-dihydro-1H-benzo[e][1,4]diazepin-3-yl]-3-m-tolyl-urea]	–	720 nM
Cc1cccc(NC(=O)NC2N=C(c3ccccc3)c3ccccc3N(CC(=O)C(C)C)C2=O)c1 (stereo not drawn) [1-[1-(3-Methyl-2-oxo-butyl)-2-oxo-5-phenyl-2,3-dihydro-1H-benzo[e][1,4]diazepin-3-yl]-3-m-tolyl-urea]	–	1200 nM
Cc1cccc(NC(=O)N[C@@H]2N=C(c3ccccc3)c3ccccc3N(CC(=O)C3CCCC3)C2=O)c1 [1-[(R)-1-(2-Cyclopentyl-2-oxo-ethyl)-2-oxo-5-phenyl-2,3-dihydro-1H-benzo[e][1,4]diazepin-3-yl]-3-m-tolyl-urea]	–	440 nM
Cc1cccc(NC(=O)NC2N=C(c3ccccc3)c3ccccc3N(CC(=O)CC3CCCCC3)C2=O)c1 (stereo not drawn) [1-[1-(3-Cyclohexyl-2-oxo-propyl)-2-oxo-5-phenyl-2,3-dihydro-1H-benzo[e][1,4]diazepin-3-yl]-3-m-tolyl-urea]	–	480 nM
